Earlier results in US9138422B2, “Method of using antimycin A to downregulate Wnt/b-catenin pathway to treat gefitinib resistant cancer” (priority 2011, dated 2015).
Where two headings read alike, the source gives them in different places.

Tested on: NSCLC (lung adenocarcinoma) patients
Conditions: cited from earlier work

SMILES | median progression free survival (second line treatment after chemotherapy) [months] | median progression free survival (first-line treatment, sensitive EGFR mutated patients)
C#Cc1cccc(Nc2ncnc3cc(OCCOC)c(OCCOC)cc23)c1 [erlotinib] | 2.2 | –
COc1cc2ncnc(Nc3ccc(F)c(Cl)c3)c2cc1OCCCN1CCOCC1 [gefitinib] | – | about 10 months
